Test results from US4559323A, “A41030 Antibiotics” (Eli Lilly and Company, priority 1984, dated 1985).
≈ marks a conversion by molar mass, not a printed value. Where two headings read alike, the source gives them in different places.

Assays:
[1] = test system: Peptococcus asaccharolyticus; assay: Agar-dilution MIC (anaerobes); type: cell-based; conditions: Table 14; Peptococcus asaccharolyticus 1302
[2] = mice, administered intraperitoneally
S. pyogenes = assay: Experimental bacterial infection in mice, subcutaneous ED50; type: in vivo; conditions: two doses subcutaneously
Experimental: (§1) All of the A41030 factors tested have shown in vivo antimicrobial activity against experimental bacterial infections. When two doses of test compound were administered subcutaneously to mice in illustrative infections, the activity observed is measured as an ED50 value [effective dose in mg./kg. to protect fifty percent of the test animals: See Warren Wick, et al., J. Bacteriol. 81, 233-235 (1961)].

Staph. aureus = assay: as above; type: in vivo; conditions: two doses subcutaneously
Experimental: as §1

S. pneumoniae = assay: as above; type: in vivo; conditions: two doses subcutaneously
Experimental: as §1

Pc. magnus = assay: Agar-dilution MIC (anaerobes); type: cell-based, Peptococcus magnus; conditions: Table 15
Experimental: The MIC values were determined by the agar-dilution method, and are recorded in Table 15, which follows.

Staphylococcus aureus = assay: Agar-dilution MIC; type: cell-based
Clostridium septicum = assay: Agar-dilution MIC (anaerobes); type: cell-based; conditions: Table 14; Clostridium septicum 1128
Propionibacterium acnes = assay: Agar-dilution MIC (anaerobes); type: cell-based
Description: Antibiotic A41030 factors A, B and C have also been tested and found to be active against a genus of anaerobic bacteria identified as Propionibacterium acnes.

[3] = test system: Streptococcus sp. Group B; assay: Agar-dilution MIC; type: cell-based; conditions: Table 18, 24 hours
Description: (§2) The in vitro activity of antibiotic A41030 factors A and B against a number of representative aerobic, gram-positive bacteria, including Streptococcus sp. Group D, has been determined using a standard agar-dilution assay.

[4] = test system: Streptococcus sp. ATCC 10389; assay: Agar-dilution MIC; type: cell-based; conditions: Table 18, 24 hours
Description: as §2

Klebsiella pneumoniae = assay: Agar-dilution MIC; type: cell-based; conditions: Table 17; 24 hours; Klebsiella pneumoniae X68
[5] = test system: Staphylococcus epidermidis; assay: Agar-dilution MIC; type: cell-based; conditions: 24 hours
Description: (§3) The agar-dilution procedure described by the International Collaborative study (ICS) group was used to determine the minimum inhibitory concentrations (MIC's).

Streptococcus pneumoniae = assay: Agar-dilution MIC; type: cell-based; conditions: 24 hours
Description: as §3

Escherichia coli = assay: Agar-dilution MIC; type: cell-based; conditions: Table 17, 24 hours
Enterobacter cloacae = assay: Agar-dilution MIC; type: cell-based; conditions: Table 17, 24 hours
Citrobacter freundii = conditions: Table 17; 24 hours; Citrobacter freundii CF17
Description: as §3

Enterobacter aerogenes = assay: Agar-dilution MIC; type: cell-based; conditions: Table 17; 24 hours; Enterobacter aerogenes C32
[6] = test system: Peptostreptococcus intermedius; assay: Agar-dilution MIC (anaerobes); type: cell-based
[7] = test system: Haemophilus parainfluenzae; assay: Agar-dilution MIC; type: cell-based; conditions: Table 18, 24 hours

N[C@H]1C(=O)N[C@@H]2Cc3ccc(c(Cl)c3)Oc3cc4cc(c3O)Oc3ccc(cc3Cl)[C@@H](O)[C@@H]3NC(=O)C(NC(=O)[C@@H]4NC(=O)[C@@H](NC2=O)c2cc(O)cc(c2)Oc2cc1ccc2O)c1ccc(O)c(c1)-c1c(O)cc(O)cc1[C@@H](C(=O)O)NC3=O [A41030 factor B]
MIC [1]: ≤ 0.25 µg/mL | LD50 [2]: > 300 mg/kg | acute toxicity [2]: > 300 mg/kg | ED50 (S. pyogenes): 1.4 mg/kg | ED50 (Staph. aureus): < 0.43 mg/kg | ED50 (S. pneumoniae): 1.4 mg/kg | MIC (Pc. magnus; Pc. magnus 1401): 0.125 µg/mL (≈ 0.104 µM) | MIC (Pc. magnus; Pc. magnus 1421): 0.125 µg/mL (≈ 0.104 µM) | MIC (Pc. magnus; Pc. magnus 1477): 0.25 µg/mL (≈ 0.209 µM) | MIC (Staphylococcus aureus): 0.125 µg/mL (≈ 0.104 µM) | MIC (Staphylococcus aureus; Table 17, 24 hours, Staphylococcus aureus S13E): 0.125 µg/mL (≈ 0.104 µM) | MIC (Staphylococcus aureus; Table 17, 24 hours, Staphylococcus aureus X400): 0.25 µg/mL (≈ 0.209 µM) | MIC (Staphylococcus aureus; Table 18, 24 hours, Staphylococcus aureus 3055): 0.06 µg/mL (≈ 0.05 µM) | MIC (Staphylococcus aureus; Table 18, 24 hours, Staphylococcus aureus V138): 0.06 µg/mL (≈ 0.05 µM) | MIC (Clostridium septicum): 4 µg/mL (≈ 3.34 µM) | MIC (Propionibacterium acnes; Table 13, 24-hour, P. acnes 44): 0.06 µg/mL (≈ 0.05 µM) | MIC (Propionibacterium acnes; Table 13, 24-hour, P. acnes 79): 0.06 µg/mL (≈ 0.05 µM) | MIC (Propionibacterium acnes; Table 13, 24-hour, P. acnes 101): 0.06 µg/mL (≈ 0.05 µM) | MIC (Propionibacterium acnes; Table 13, 24-hour, P. acnes 103): 0.06 µg/mL (≈ 0.05 µM) | MIC (Propionibacterium acnes; Table 13, 24-hour, P. acnes 104): 0.25 µg/mL (≈ 0.209 µM) | MIC (Propionibacterium acnes; Table 13, 24-hour, P. acnes 105): 0.06 µg/mL (≈ 0.05 µM) | MIC (Propionibacterium acnes; Table 13, 24-hour, P. acnes 106): 0.06 µg/mL (≈ 0.05 µM) | MIC (Propionibacterium acnes; Table 13, 24-hour, P. acnes 107): 0.06 µg/mL (≈ 0.05 µM) | MIC (Propionibacterium acnes; Table 13, 24-hour, P. acnes 5170): ≤ 0.03 µg/mL | MIC (Propionibacterium acnes; Table 13, 24-hour, P. acnes 5176): 0.06 µg/mL (≈ 0.05 µM) | MIC (Propionibacterium acnes; Table 13, 24-hour, P. acnes 5187): 0.06 µg/mL (≈ 0.05 µM) | MIC (Propionibacterium acnes; Table 13, 24-hour, P. acnes 5191): 0.06 µg/mL (≈ 0.05 µM) | MIC (Propionibacterium acnes; Table 13, 24-hour, P. acnes 5197): 0.06 µg/mL (≈ 0.05 µM) | MIC (Propionibacterium acnes; Table 13, 24-hour, P. acnes 5226): 0.5 µg/mL (≈ 0.417 µM) | MIC (Propionibacterium acnes; Table 13, 24-hour, P. acnes 5227): 0.06 µg/mL (≈ 0.05 µM) | MIC (Propionibacterium acnes; Table 13, 24-hour, P. acnes 5228): 0.5 µg/mL (≈ 0.417 µM) | MIC (Propionibacterium acnes; Table 13, 24-hour, P. acnes 5229): 0.25 µg/mL (≈ 0.209 µM) | MIC (Propionibacterium acnes; Table 13, 24-hour, P. acnes 5246): 0.125 µg/mL (≈ 0.104 µM) | MIC (Propionibacterium acnes; Table 13, 24-hour, P. acnes 5292): 0.06 µg/mL (≈ 0.05 µM) | MIC (Propionibacterium acnes; Table 14, Propionibacterium acnes 79): 16 µg/mL (≈ 13.3 µM) | MIC ([3]; Streptococcus sp. Group B 5): 1 µg/mL (≈ 0.834 µM) | MIC ([3]; Streptococcus sp. Group B 14): 0.125 µg/mL (≈ 0.104 µM) | MIC [4]: 0.25 µg/mL (≈ 0.209 µM) | MIC (Klebsiella pneumoniae): 128 µg/mL (≈ 107 µM) | MIC ([5]; Table 17, Staphylococcus epidermidis EPI1): 0.125 µg/mL (≈ 0.104 µM) | MIC ([5]; Table 17, Staphylococcus epidermidis EPI2): 0.5 µg/mL (≈ 0.417 µM) | MIC ([5]; Table 18, Staphylococcus epidermidis 219): 0.03 µg/mL (≈ 0.025 µM) | MIC ([5]; Table 18, Staphylococcus epidermidis 222): 0.125 µg/mL (≈ 0.104 µM) | MIC ([5]; Table 18, Staphylococcus epidermidis 269): 0.03 µg/mL (≈ 0.025 µM) | MIC ([5]; Table 18, Staphylococcus epidermidis 270): 0.06 µg/mL (≈ 0.05 µM) | MIC ([5]; Table 18, Staphylococcus epidermidis 285): 0.03 µg/mL (≈ 0.025 µM) | MIC (Streptococcus pneumoniae; Table 17, Streptococcus pneumoniae Park I): 0.5 µg/mL (≈ 0.417 µM) | MIC (Streptococcus pneumoniae; Table 18, Streptococcus pneumoniae B1-438): 0.5 µg/mL (≈ 0.417 µM) | MIC (Streptococcus pneumoniae; Table 18, Streptococcus pneumoniae Park I): 0.125 µg/mL (≈ 0.104 µM) | MIC (Escherichia coli; Escherichia coli EC14): 128 µg/mL (≈ 107 µM) | MIC (Escherichia coli; Escherichia coli N10): 128 µg/mL (≈ 107 µM) | MIC (Escherichia coli; Escherichia coli TEM): 128 µg/mL (≈ 107 µM) | MIC (Enterobacter cloacae; Enterobacter cloacae 265A): 128 µg/mL (≈ 107 µM) | MIC (Enterobacter cloacae; Enterobacter cloacae EB5): 128 µg/mL (≈ 107 µM) | MIC (Citrobacter freundii): 128 µg/mL (≈ 107 µM) | MIC (Enterobacter aerogenes): 64 µg/mL (≈ 53.4 µM) | MIC ([6]; Table 14, Peptostreptococcus intermedius 1264): 0.5 µg/mL (≈ 0.417 µM) | MIC ([6]; Table 15, Ps. intermedius 1264): ≤ 0.03 µg/mL | MIC ([6]; Table 15, Ps. intermedius 1524): 0.25 µg/mL (≈ 0.209 µM) | MIC ([6]; Table 15, Ps. intermedius 1624): 0.5 µg/mL (≈ 0.417 µM) | MIC ([7]; Haemophilus parainfluenzae 7901): 16 µg/mL (≈ 13.3 µM) | MIC ([7]; Haemophilus parainfluenzae 9796): 16 µg/mL (≈ 13.3 µM)
